One compound from PMC10258805, “Nonpeptidic Oxazole-Based Prolyl Oligopeptidase Ligands with Disease-Modifying Effects on α-Synuclein Mouse Models of Parkinson’s Disease” (Journal of Medicinal Chemistry, 2023) can be followed below.

In one assay the test system is LC3BII in HEK-293 cells. Put plainly: Autophagy marker LC3BII assay (Western blot). It is filed as cell-based, human. As to conditions: HEK-293, 10 μM. For orientation: Immunoblotting shows a protein as a band on a membrane.
Assay [1] concerns pPP2Ac and PP2Ac in mouse brain. The experiment in a line: PP2A markers in mouse brain (Western blot). It is filed as in vivo. As to conditions: 10 mg/kg i.p., 45 min after injection.
The subject of assay [2] is oligomeric αSyn in A30P*A53T transgenic mice. Put plainly: Oligomeric αSyn in A30P*A53T transgenic mice. The class given is in vivo, mouse. As to conditions: TG mice, 10 mg/kg i.p. every 12 h for 7 days, vs vehicle.
The test system of assay [3] is αSyn dimerization in HEK-293 PREP-KO cells. Put plainly: αSyn-dimerization assay in PREP-KO cells. It is filed as cell-based, human.
Assay [4] concerns oligomeric αSyn in AAV-αSyn-injected mice. Put plainly: Oligomer-specific αSyn immunoreactivity (OD) in AAV-αSyn PD mouse model. As to conditions: 10 mg/kg/day minipump, 4 weeks.
The next assay addresses T1, DPP4 (Homo sapiens, UniProt P27487).
T1 construct: DPPIV was purified from human seminal plasma; from tissue; host or cells: human seminal plasma
The experiment in a line: Close-relative enzyme specificity assay, DPP4. The class given is biochemical. As to conditions: 1 or 10 μM. The protocol:
DPP4: DPPIV was purified from human seminal plasma, as described previously.
DPP4 and DPP9: Ala-Pro-para-nitroanilide (pNA) was used as the substrate at the respective concentrations of 25 μM (DPP4) or 150 μM (DPP9) at pH 7.4 (0.05 M HEPES–NaOH buffer with 0.1% Tween-20, 0.1 mg/mL BSA, and 150 mM NaCl). […] Measurements were done on the Infinite 200 as above.

Another assay addresses T2, Recombinant human DPP2 (Homo sapiens, UniProt Q9UHL4).
T2 construct: purchased R&D Systems 3438-SE-010
Put plainly: Close-relative enzyme specificity assay, DPP2. It is filed as biochemical. As to conditions: 1 or 10 μM. As to the method:
DPP2: Recombinant human DPP2 was purchased from R&D Systems (#3438-SE-010).
DPP2: Lys-Ala-pNA was used as the substrate at a concentration of 1 mM at pH 5.5 (100 mM NaAc, 10 mM EDTA, 14 μg/mL aprotinin). […] The substrate was added, and the velocities of pNA release were measured kinetically at 405 nm for at least 10 min at 37 °C. Measurements were done on the Infinite 200 as above.

A further assay has as its system LC3BII in mouse brain. Put plainly: LC3BII in mouse brain (Western blot). As to conditions: 10 mg/kg i.p., 45 min after injection. The class given is in vivo.
The target in a further assay is T3, PREP in HEK-293 cells (Homo sapiens, UniProt P48147).
T3 construct: endogenous in cells; host or cells: HEK-293 (ATCC)
T3 sequence (P48147 1-710): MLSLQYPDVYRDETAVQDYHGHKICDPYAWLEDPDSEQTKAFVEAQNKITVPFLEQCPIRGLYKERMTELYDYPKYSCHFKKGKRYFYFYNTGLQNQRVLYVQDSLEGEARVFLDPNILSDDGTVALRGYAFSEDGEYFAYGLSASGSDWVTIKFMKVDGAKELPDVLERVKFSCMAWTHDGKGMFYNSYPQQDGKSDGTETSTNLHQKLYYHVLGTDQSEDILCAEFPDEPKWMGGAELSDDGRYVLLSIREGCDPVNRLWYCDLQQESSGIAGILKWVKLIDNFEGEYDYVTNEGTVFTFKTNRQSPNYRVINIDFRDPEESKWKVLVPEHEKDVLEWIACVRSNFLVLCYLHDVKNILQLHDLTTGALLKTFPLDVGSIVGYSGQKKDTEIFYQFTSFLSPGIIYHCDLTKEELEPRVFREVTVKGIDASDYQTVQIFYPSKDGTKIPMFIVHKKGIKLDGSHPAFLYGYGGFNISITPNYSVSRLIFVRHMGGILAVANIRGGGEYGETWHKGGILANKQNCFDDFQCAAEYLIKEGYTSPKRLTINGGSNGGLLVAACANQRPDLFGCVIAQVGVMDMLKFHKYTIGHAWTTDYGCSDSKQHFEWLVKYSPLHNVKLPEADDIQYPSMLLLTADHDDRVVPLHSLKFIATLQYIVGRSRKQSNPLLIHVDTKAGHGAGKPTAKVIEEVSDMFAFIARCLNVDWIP
Put plainly: Cellular thermal shift assay (CETSA). The class given is cell-based. As to conditions: 10 μM, 1 h. The protocol: CETSA was performed as previously described.[41] HEK-293 cells were seeded to T25 flasks with a density of 1 × 10^6 cells. […] After the exposure, the cells were collected in PBS and aliquoted into 7 PCR tubes (100,000 cells/tube). The cells were prewarmed at 37 °C for 3 min, then heated to 37, 47, 50, 53, 56, 63, or 67 °C for 3 min and subsequently cooled at 25 °C for 3 min using a PCR Mastercycler (T100 Thermal Cycler, Bio-Rad). After heating, the cells were disrupted with two freeze–thaw cycles by submerging the tubes into liquid nitrogen and subsequently thawed by incubation at 25 °C for 3 min. The aggregated proteins were removed by centrifugation (at 20,000g for 20 min at 4 °C), and the soluble fractions were diluted with Laemmli buffer (Bio-Rad, Hercules, CA) and analyzed with Western blot as described above. The nondenaturated protein fractions (%) were calculated by comparing the intensities of temperature-treated cell samples to the corresponding cell samples from 37 °C.

Assay [5] deals with pPP2Ac and PP2Ac in HEK-293 cells. Put plainly: PP2A marker assay (Western blot). It is filed as cell-based, human. As to conditions: HEK-293, 10 μM.

Molecules are shown by their SMILES. “Also recorded” adds a separate entry of the source.

T1 sequence (P27487 whole entry): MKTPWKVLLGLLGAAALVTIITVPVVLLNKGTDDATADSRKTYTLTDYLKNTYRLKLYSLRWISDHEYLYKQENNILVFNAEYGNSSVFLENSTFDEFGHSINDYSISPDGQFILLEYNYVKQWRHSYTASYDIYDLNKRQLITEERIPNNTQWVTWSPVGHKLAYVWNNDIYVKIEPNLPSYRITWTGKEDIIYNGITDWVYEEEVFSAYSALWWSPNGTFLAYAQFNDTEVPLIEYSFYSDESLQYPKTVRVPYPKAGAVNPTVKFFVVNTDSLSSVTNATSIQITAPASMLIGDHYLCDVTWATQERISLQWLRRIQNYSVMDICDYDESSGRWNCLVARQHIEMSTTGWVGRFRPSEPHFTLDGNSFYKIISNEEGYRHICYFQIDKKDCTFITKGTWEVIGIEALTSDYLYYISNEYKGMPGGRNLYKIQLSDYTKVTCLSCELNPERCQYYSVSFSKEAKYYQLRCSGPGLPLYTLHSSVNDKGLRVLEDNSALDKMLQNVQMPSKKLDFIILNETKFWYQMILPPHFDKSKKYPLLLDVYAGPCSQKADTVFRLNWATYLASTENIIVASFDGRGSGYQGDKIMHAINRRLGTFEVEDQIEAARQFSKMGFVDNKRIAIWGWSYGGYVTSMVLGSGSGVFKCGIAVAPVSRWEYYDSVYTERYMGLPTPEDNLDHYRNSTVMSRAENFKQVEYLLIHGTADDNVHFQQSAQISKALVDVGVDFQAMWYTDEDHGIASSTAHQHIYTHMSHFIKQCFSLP

As to `Cc1nc(CCCc2ccccc2)oc1N1CCC[C@H]1C#N` [HUP-55, (S)-1-(4-Methyl-2-(3-phenylpropyl)oxazol-5-yl)pyrrolidine-2-carbonitrile], in the assay on LC3BII in HEK-293 cells (4 h), the “LC3BII levels (in words)” value is given as “significant increase in LC3BII levels”. For the same compound, in the assay with LC3BII in HEK-293 cells (24 h), the “LC3BII levels (in words)” value is recorded as “significantly elevated LC3BII levels”. For the same compound, in assay [1], the “inactive pPP2Ac levels in mouse brain (in words)” value was “decreased inactive pPP2Ac levels, but this was not significant” and the “levels of PP2Ac in mouse brain (in words)” value is listed as “significantly increased the levels of PP2Ac”. Moreover, the “decrease of oligomeric αSyn in the SNpc” value in assay [2] (nonsignificant) came to 38%. The “decrease of oligomeric αSyn in the STR” value in assay [2] (not statistically significant) stood at 47%. In assay [3], the “effect on αSyn dimerization” value is on record as “no effect on αSyn dimerization”. The “OD of oligomeric αSyn in the SNpc (in words)” value in assay [4] (vs vehicle-treated group) is “did not significantly reduce”. Also, the “OD of oligomer-specific αSyn in the STR (in words)” value in assay [4] (vs vehicle-treated mice) is recorded as “decreased the OD of oligomer-specific αSyn”. In addition, the “inhibition of DPP4” value at DPP4 is on record as “no inhibition; also recorded: does not inhibit”. Also, at Recombinant human DPP2, the “inhibition of DPP2” value is recorded as “no inhibition; also recorded: does not inhibit”. Besides, the “levels of LC3BII in mouse brain (in words)” value in the assay with LC3BII in mouse brain is “significantly elevated”. The “fitted mean aggregation temperature” value at PREP in HEK-293 cells was 53.19 °C. Also, at PREP in HEK-293 cells (vs DMSO), the “increase in the fitted mean aggregation temperature” value is 3.01 °C. Further, in assay [5] (4 h), the “pPP2Ac levels (in words)” value is given as “significant decrease in pPP2Ac levels” and the “total PP2Ac levels (in words)” value is listed as “elevated total PP2Ac levels”. Also, the “PP2Ac levels (in words)” value in assay [5] (24 h) is given as “significantly elevated”.
